Key:
[1] = target: T1, KRAS G12D protein (Homo sapiens, UniProt P01116, G12D); test: KRAS degradation activity by Cell ELISA in AsPC-1 (Test Example 1); type: cell-based; conditions: AsPC-1 cells, cultured overnight with compound, corrected with β-actin, read-out: DC50 (50% degradation concentration of the amounts of KRAS)
T1 construct: host or cells: AsPC-1
Procedure: Test Example 1: Evaluation of KRAS Degradation Activity on Human G12D Mutant KRAS-Positive Pancreatic Cancer Line AsPC-1 (CRL-1682; ATCC)
The KRAS degradation activity of test compounds was evaluated by measuring the expression levels of KRAS G12D protein by Cell ELISA.
AsPC-1 cells were seeded at 20 μL per well on 384-well plates (from Greiner bio-one) to give 2.0×10^4 cells per well. As for the cell culture conditions, RPMI 1640 (from Sigma-Aldrich) medium containing 10% fetal bovine serum (from Cytiva) was used in the presence of 5% CO2 at 37° C.
The next day, the test compounds (10 points having final concentrations in the range of 10 μM to 0.3 nM) and DMSO (from FUJIFILM Wako Pure Chemical Corporation), which was the solvent for the test compounds, as a negative control were diluted 500-fold with a fresh medium and were added at 20 μL per well. The cells were cultured overnight.
The next day, the culture supernatant was removed, and 4% paraformaldehyde phosphate buffer (from FUJIFILM Wako Pure Chemical Corporation) was added at 20 μL per well. The plates were allowed to stand for 30 minutes at room temperature to thus immobilize the cells. Then, the supernatant was removed, and 0.1% Triton X-100 (from Amersham Biosciences)-containing Phosphate buffered saline (PBS; from FUJIFILM Wako Pure Chemical Corporation) was added at 20 μL per well. After allowing to stand for 10 minutes at room temperature, the supernatant was removed. PBS was added at 25 μL per well, and the supernatant was removed to thus wash each well. The washing was performed twice in total. Next, the supernatant was removed, and 0.5% sodium dodecyl sulfate (SDS; from Invitrogen)-containing PBS was added at 20 μL per well. After allowing to stand at room temperature for 10 minutes, the supernatant was removed by a centrifugal operation (using a centrifugal dehydrator machine, the supernatant was removed by the same method hereinafter). PBS was added at 25 μL per well, and the supernatant was removed to thus wash each well. The washing was performed twice in total. The supernatant was removed, and blocking solution (Intercept Blocking Buffer; from Li-COR Biosciences) was added at 20 μL per well. After allowing to stand for 30 minutes at room temperature, the supernatant was removed, and a solution obtained by diluting anti-β-actin antibody (Anti-beta Actin antibody [mAbcam 8226]-Loading Control; from abcam) 1,000-fold with blocking solution and a solution obtained by diluting anti-Ras (G12D Mutant Specific) antibody (Ras (G12D Mutant Specific) (D8H7) Rabbit mAb #14429; from Cell Signaling Technology) and anti-β-actin antibody (from abcam) 1,000-fold with blocking solution were respectively added to positive control wells and the other wells at 20 μL per well as a primary antibody. The plate was allowed to stand overnight at 4° C.
The next day, the supernatant was removed. PBS was added at 25 μL per well, and the supernatant was removed to thus wash each well. The washing was performed twice in total. The supernatant was removed, and a solution obtained by diluting Donkey anti-Mouse IgG H&L (IRDye 680RD) (from Li-COR Biosciences) and Goat anti-Rabbit IgG H&L (IRDye 800CW) (from Li-COR Biosciences) 1,000-fold with blocking solution was added at 20 μL per well as a secondary antibody. After allowing to stand for 1 hour at room temperature, the supernatant was removed. PBS was added at 25 μL per well, and the supernatant was removed to thus wash each well. The washing was performed twice in total. After removing the supernatant, the plate was dried with air at room temperature for 2 hours or more, and the 700 nm and 800 nm fluorescent signals were measured with Aerius (from Li-COR Biosciences). […]

[2] = test system: phosphorylation of threonine 202 (Thr202) and tyrosine 204 (Tyr204) of ERK; test: ERK phosphorylation inhibitory effect by Cell ELISA in AsPC-1 (Test Example 2); type: cell-based, human; conditions: Homo sapiens, ASPC1, AsPC-1 cells, cultured overnight with compound; 1 μM trametinib taken as 0%
Procedure: Test Example 2: Evaluation of ERK Phosphorylation Inhibitory Effect on Human G12D Mutant KRAS-Positive Pancreatic Cancer Line AsPC-1
The ERK phosphorylation inhibitory effect of test compounds was evaluated by measuring phosphorylation of threonine 202 (Thr202) and tyrosine 204 (Tyr204) of ERK located downstream of the KRAS signal by Cell ELISA.
AsPC-1 cells were seeded on 384-well plates at 36 μL/well to give 2.0×10^4 cells per well. As for the cell culture conditions, RPMI 1640 medium containing 10% fetal bovine serum was used in the presence of 5% CO2 at 37° C.
The next day, the test compounds (10 points having final concentrations in the range of 10 μM to 0.3 nM), trametinib (MEK inhibitor) of a final concentration of 1 μM as positive control and DMSO, which was the solvent for the test compounds, as negative control were diluted 100-fold with a fresh medium and were added at 4 μL per well. The cells were cultured overnight. After culturing, 30% glyoxal solution (40% glyoxal [from Nacalai Tesque] was diluted with PBS) was quickly added at 30 μL per well, and the plate was allowed to stand for 60 minutes at room temperature to thus immobilize the cells. Then, the plate was centrifuged to remove the supernatant (using a centrifugal dehydrator machine, the supernatant was removed by the same method hereinafter), and 0.1% Triton X-100-containing PBS was added at 20 μL per well. After allowing to stand for 10 minutes at room temperature, the supernatant was removed, and the same operation was further repeated. Next, 0.5% SDS-containing PBS was added at 20 μL per well, and after allowing to stand at room temperature for 30 minutes, the supernatant was removed. Subsequently, blocking solution (Intercept Blocking Buffer) was added at 20 μL per well, and the plate was allowed to stand for 1 hour at room temperature. The supernatant was removed, and an ERK (Thr202/Tyr204) phosphorylation antibody (Phospho-p44/42 MAPK (Erk 1/2) (Thr202/Tyr204) (D13.14.4E) XP Rabbit mAb; from Cell Signaling Technology) diluted 2,500-fold with blocking solution was added at 15 μL per well as a primary antibody. The plates were allowed to stand at 4° C. overnight.
The next day, the supernatant was removed. 0.05% Tween-20 (from Thermo Fisher Scientific)-containing PBS was added at 50 μL per well, and the supernatant was removed to thus wash each well. The washing was performed three times in total. After washing, Goat anti-Rabbit IgG H&L (IRDye 800CW) diluted 1,000-fold with blocking solution was added at 15 μL per well as a secondary antibody, and the plates were allowed to stand for 1 hour at room temperature. The supernatant was removed, and each well was washed three times with 0.05% Tween-20-containing PBS in the same manner as after the primary antibody reaction. After removing the supernatant, the plates were dried with air at room temperature for 3 hours or more, and the 800-nm fluorescent signals were measured with Aerius.
With the signaling value at the time of addition of DMSO taken as 100% and with the signaling value at the time of addition of 1 μM trametinib taken as 0%, the 50% inhibitory concentration values (IC50) were calculated by Sigmoid-Emax nonlinear regression analysis.

[3] = test system: human G12D mutant KRAS-positive pancreatic cancer line AsPC-1; test: Non-anchorage-dependent cell growth inhibition, spheroid 3D cell culture (Test Example 3); type: cell-based; conditions: Homo sapiens, ASPC1, 144 h, AsPC-1 spheroid 3D culture, 6 days, CellTiter Glo 2.0
Procedure: Test Example 3: Evaluation of Non-Anchorage-Dependent Cell Growth Inhibitory Effect on Human G12D Mutant KRAS-Positive Pancreatic Cancer Line AsPC-1
The non-anchorage-dependent cell growth inhibitory effect of test compounds was evaluated by spheroid 3D cell culture.
AsPC-1 cells were seeded on low-cell-adhesive round bottom 384-well plates (PrimeSurface: from Sumitomo Bakelite) at 36 μL/well to give 5×10^2 cells per well. As for the cell culture conditions, RPMI 1640 medium containing 10% fetal bovine serum was used in the presence of 5% CO2 at 37° C.
The next day, the test compounds (10 or 6 points having final concentrations in the range of 10 μM to 0.3 nM) and DMSO, which was the solvent for the test compounds, as a negative control were diluted 100-fold with a fresh medium and were added at 4 μL per well. After culturing in the presence of 5% CO2 at 37° C. for 6 days, CellTiter Glo 2.0 (from Promega) was added at 20 μL per well. After stirring with a plate mixer (from FINEPCR) at room temperature for 1 hour, the luminescent signals were measured with ARVO X3 (from PerkinElmer).
With the signaling value in treatment with DMSO taken as 100% and with the signaling value in the medium alone without cells taken as 0%, the 50% inhibitory concentration values (IC50) were calculated by Sigmoid-Emax nonlinear regression analysis.

T1 sequence (P01116 1-188 isoform P01116-2 G12D): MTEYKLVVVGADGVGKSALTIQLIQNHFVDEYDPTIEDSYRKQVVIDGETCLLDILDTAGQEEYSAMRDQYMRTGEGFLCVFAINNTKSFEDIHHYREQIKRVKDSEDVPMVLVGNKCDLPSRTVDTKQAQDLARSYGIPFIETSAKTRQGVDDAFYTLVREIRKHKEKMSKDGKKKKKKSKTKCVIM

SMILES	DC50 [1]	IC50 [2]	IC50 [3]
COCCOc1nc(N(C)[C@H]2CCNC2)c2cc(C3CC3)c(-c3c(C)c(F)cc4[nH]ncc34)c(OCc3ccc(-c4cn([C@H](C(=O)N5C[C@H](O)C[C@H]5C(=O)N[C@@H](CO)c5ccc(-c6scnc6C)cc5)C(C)C)nn4)cc3)c2n1 (atropisomer, axis not shown) [Example 24]	48 nM	15 nM	26 nM
Cc1ncsc1-c1ccc([C@H](CO)NC(=O)[C@@H]2C[C@@H](O)CN2C(=O)[C@H](C(C)C)n2cc(-c3ccc(COc4c(-c5c(C)c(F)cc6[nH]ncc56)c(C5CC5)cc5c(N(C)[C@H]6CCNC6)nc(OC[C@@H]6CCCO6)nc45)cc3)nn2)cc1 (atropisomer, axis not shown; (M)) [Example 10, (4R)-1-[(2S)-2-{4-[4-({[(7M) 6-cyclopropyl-7-(6-fluoro-5-methyl-1H-indazol-4-yl)-4-{methyl[(3S)-pyrrolidin-3-yl]amino}-2-{[(2S)-oxolan-2-yl]methoxy}quinazolin-8-yl}oxy}methyl)phenyl]-1H-1,2,3-triazol-1-yl}-3-methylbutanoyl]-4-hydroxy-N-{(1R)-2-hydroxy-1-[4-(4-methyl-1,3-thiazol-5-yl)phenyl]ethyl}-L-prolinamide]	18 nM	8 nM	6 nM
Cc1c(F)cc2[nH]ncc2c1-c1c(C2CC2)cc2c(N(C)[C@H]3CCNC3)nc(OC[C@H]3CCCO3)nc2c1OCc1ccc(-c2cn([C@H](C(=O)N3C[C@H](O)C[C@H]3C(=O)N[C@@H](CO)c3ccc(-n4cncn4)cc3)C(C)C)nn2)cc1 (atropisomer, axis not shown) [Example 41]	29 nM	9 nM	8 nM
Cc1ncsc1-c1ccc([C@H](CO)NC(=O)[C@@H]2C[C@@H](O)CN2C(=O)[C@H](C(C)C)n2cc(-c3ccc(COc4c(-c5c(C)c(F)cc6[nH]ncc56)c(C5CC5)cc5c(OC6CNC6)nc(OC6CCOCC6)nc45)cc3)nn2)cc1 (atropisomer, axis not shown; (M)) [Example 2, (4R)-1-[(2S)-2-(4-{4-[({(7M)-4-[(azetidin-3-yl)oxy]-6-cyclopropyl-7-(6-fluoro-5-methyl-1H-indazol-4-yl)-2-[(oxan-4-yl)oxy]quinazolin-8-yl}oxy)methyl]phenyl}-1H-1,2,3-triazol-1-yl)-3-methylbutanoyl]-4-hydroxy-N-{(1R)-2-hydroxy-1-[4-(4-methyl-1,3-thiazol-5-yl)phenyl]ethyl}-L-prolinamide]	20 nM	9 nM	92 nM
Cc1c(F)cc2[nH]ncc2c1-c1c(C2CC2)cc2c(N(C)[C@H]3CCNC3)nc(OC[C@H]3CCCO3)nc2c1OCc1ccc(-c2cn([C@H](C(=O)N3C[C@H](O)C[C@H]3C(=O)N[C@@H](CO)c3ccc(-n4ccnc4C)cc3)C(C)C)nn2)cc1 (atropisomer, axis not shown) [Example 30]	121 nM	10 nM	12 nM
Cc1ncsc1-c1ccc([C@H](CO)NC(=O)[C@@H]2C[C@@H](O)CN2C(=O)[C@H](C(C)C)n2cc(-c3ccc(COc4c(-c5c(C)c(F)cc6[nH]ncc56)c(C5CC5)cc5c(N(C)[C@H]6CCNC6)nc(OC[C@@H](C)F)nc45)cc3)nn2)cc1 (atropisomer, axis not shown) [Example 48]	38 nM	15 nM	16 nM
Cc1ncsc1-c1ccc([C@H](CO)NC(=O)[C@@H]2C[C@@H](O)CN2C(=O)[C@H](C(C)C)n2cc(-c3ccc(COc4c(-c5c(C)c(F)cc6[nH]ncc56)c(C5CC5)cc5c(N(C)[C@H]6CCNC6)nc(OC6CCOCC6)nc45)cc3)nn2)cc1 (atropisomer, axis not shown) [Example 8]	18 nM	20 nM	16 nM
Cc1ncsc1-c1ccc([C@H](CO)NC(=O)[C@@H]2C[C@@H](O)CN2C(=O)[C@H](C(C)C)n2cc(-c3ccc(COc4c(-c5c(C)c(F)cc6[nH]ncc56)c(C5CC5)cc5c(N(C)[C@H]6CCNC6)nc(OC[C@H]6CCN(C)C6)nc45)cc3)nn2)cc1 (atropisomer, axis not shown) [Example 18]	508 nM	100 nM	73 nM

— US20250206751A1, “HETEROCYCLIC COMPOUND FOR INDUCING DEGRADATION OF G12D MUTANT KRAS PROTEIN” (Astellas Pharma Inc., priority 2022, published 2025)
